Reference: patent US10532995B2, “Substituted pyrazole compounds as serine protease inhibitors” (VERSEON CORPORATION, priority 2015, dated 2020)

Assays:
[1] = molecular target: T1, Human thrombin (Homo sapiens, UniProt P00734); experiment: Thrombin protease activity inhibition, chromogenic substrate S-2238; type: biochemical; settings: 3 nM thrombin, 125 μM S-2238, 10 min pre-incubation, RT
T1 construct: purchased Haematologic Technologies Inc
Method in brief: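 Thrombin at 3 nM final in 0.05 M Tris pH 7.4, 0.015 M NaCl, 0.01% PEG-8000, at room temperature; compounds as ten-point three-fold dilutions.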

[2] = tested on: malignant breast tumors; settings: cited from earlier work

| SMILES | IC50 [1] [nM] | further results |
| --- | --- | --- |
| CC(C)(C)OC(=O)N1CCC(C)(c2cc(NCc3ccc(Cl)s3)n(C(=O)c3ccsc3)n2)CC1 [Entry 300, tert-butyl 4-(5-[(5-chlorothiophen-2-yl)methyl]amino-1-(thiophene-3-carbonyl)-1H-pyrazol-3-yl)-4-methylpiperidine-1-carboxylate] | < 100 | – |
| CC(C)(C)OC(=O)N1CCC(c2cc(NCc3ccc(Cl)s3)n(C(=O)c3ccsc3)n2)CC1 [Entry 301, tert-butyl 4-(5-[(5-chlorothiophen-2-yl)methyl]amino-1-(thiophene-3-carbonyl)-1H-pyrazol-3-yl)piperidine-1-carboxylate] | < 100 | – |
| CC(C)(C)OC(=O)N1CCC(c2cc(NCc3ccc(Cl)s3)[nH]n2)CC1 [Entry 302, tert-butyl 4-(5-[(5-chlorothiophen-2-yl)methyl]amino-1H-pyrazol-3-yl)piperidine-1-carboxylate] | > 100000 | – |
| Cc1c(C2CCN(C(=O)OC(C)(C)C)CC2)n[nH]c1NCc1ccc(Cl)s1 [Entry 303, tert-butyl 4-(5-[(5-chlorothiophen-2-yl)methyl]amino-4-methyl-1H-pyrazol-3-yl)piperidine-1-carboxylate] | > 100000 | – |
| CCCCCCOC(=O)NC(=N)c1ccc(NCc2nc3cc(C(=O)N(CCC(=O)OCC)c4ccccn4)ccc3n2C)cc1 [dabigatran etexilate] | – | reduction in tumor volume ([2]; at 4 weeks, treated mice): 50%; weight loss in treated mice ([2]; at 4 weeks): no weight loss; reduction of tumor cells in the blood and liver micrometastases ([2]; treated mice): 50-60% |

Second part, led by results:

| IC50 [1] [nM] | SMILES | further results |
| --- | --- | --- |
| < 100 | CC(C)(C)OC(=O)N1CCC(c2cc(NCc3ccc(Cl)s3)n(C(=O)C(C)(C)CO)n2)CC1 [Entry 297, tert-butyl 4-(5-[(5-chlorothiophen-2-yl)methyl]amino-1-(3-hydroxy-2,2-dimethylpropanoyl)-1H-pyrazol-3-yl)piperidine-1-carboxylate] | – |
| < 100 | COCC(C)(C)C(=O)n1nc(C2(C)CCN(C(=O)OC(C)(C)C)CC2)cc1NCc1ccc(Cl)s1 [Entry 298, tert-butyl 4-(5-[(5-chlorothiophen-2-yl)methyl]amino-1-(3-methoxy-2,2-dimethylpropanoyl)-1H-pyrazol-3-yl)-4-methylpiperidine-1-carboxylate] | – |
| < 100 | CC(C)(C)OC(=O)N1CCC(C)(c2cc(NCc3ccc(Cl)s3)n(C(=O)C3(C)CCOCC3)n2)CC1 [Entry 299, tert-butyl 4-(5-[(5-chlorothiophen-2-yl)methyl]amino-1-(4-methyloxane-4-carbonyl)-1H-pyrazol-3-yl)-4-methylpiperidine-1-carboxylate] | – |
